Data on five compounds can be found in ChEMBL document CHEMBL1201862, “PubChem BioAssay data set” (2004).

The AC50 is the concentration giving half of the maximal activity seen. By EC50 is commonly meant the concentration needed to bring the measured effect to its halfway point. The IC50 is the concentration that gives 50% inhibition. For orientation: CC50 means the concentration giving 50% cytotoxicity.

Active and inactive are the calls of the source. Bounds are passed on as bounds.

Test [1] addresses Latent membrane protein 1 (Human herpesvirus 4 (strain B95-8), UniProt P03230). As to the kind of experiment: TES1-eGFP NF-kB reporter inhibition versus Tet-On dsRED, dose response, selectivity assay for LMP1 NF-kB inhibitor project, imaging, HEK293T, dual-color eGFP/dsRED, cherry-picks (AID 588398). In kind it is functional, cell-based.
The test system of test [2] is HEK293. Nature of the test: inhibitors of LMP1-driven NF-kB reporter, dose response, cell-based, HEK293, luciferase, cherry-pick (AID 588343). The format is functional. Particulars: Homo sapiens.
Another test has as its system Streptococcus. As to the kind of experiment: Group A Streptococcus viability loss, dose response, counter-screen for streptokinase expression inhibitor project, luminescence, BacTiterGlo (AID 1915).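 Note: potency for reduction of bacterial viability or growth.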 In kind it is functional, organism-based. A general note: A counterscreen serves to expose hits that act by an unwanted route or on another target.
In another test the target is Phospholipase A2 (Homo sapiens, UniProt P04054). The format is functional.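 Note: confirmatory dose-response counterscreen on phospholipase A2, testing hits that came from an ultra-high-throughput screen for ATG4B inhibitors.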
The target of the next test is Cysteine protease ATG4B (Homo sapiens, UniProt Q9Y4P1). In kind it is functional.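 Note: Fluorescence-based dose-response confirmation assay measuring inhibition of ATG4B activity.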
In test [3] the test system is HEK293. Nature of the test: NOD1 signaling inhibitors, primary screen, cell-based, luminescence, uHTS (AID 1578). In kind it is functional. The note with it: Homo sapiens.
The next test has as its system Vero. Nature of the test: Vero cell cytotoxicity, cytotoxicity control for flavivirus capping enzyme inhibitors (AID 588742). In kind it is functional. The note with it: Chlorocebus sabaeus.
A short description of test [4]: HIV-1 Env-mediated cell fusion inhibitors, dose response, CCR5-tropic Env (AID 2279). In kind it is functional.
For another test, the target named is Genome polyprotein (dengue virus type 2, UniProt P29990). Nature of the test: Dengue-2 NS5 methyltransferase inhibitors, primary screen, biochemical, confirmation dose response (AID 588689). In kind it is functional.
Test [5] relates to HEK293. Nature of the test: NOD2 signaling inhibitors in MDP-stimulated cells, cell-based, uHTS, luminescence (AID 2001). In kind it is functional. Particulars: Homo sapiens.
The subject of test [6] is HEK293. As to the kind of experiment: cells. The format is functional, cell-based. The note with it: Homo sapiens.
The subject of test [7] is HEK293. Nature of the test: cells. In kind it is functional, cell-based. Particulars: Homo sapiens. The source holds these as a separate data set.
The next test has as its target T1, Streptokinase A (Streptococcus pyogenes serotype M1, UniProt P10520).
T1 sequence (P10520 whole entry): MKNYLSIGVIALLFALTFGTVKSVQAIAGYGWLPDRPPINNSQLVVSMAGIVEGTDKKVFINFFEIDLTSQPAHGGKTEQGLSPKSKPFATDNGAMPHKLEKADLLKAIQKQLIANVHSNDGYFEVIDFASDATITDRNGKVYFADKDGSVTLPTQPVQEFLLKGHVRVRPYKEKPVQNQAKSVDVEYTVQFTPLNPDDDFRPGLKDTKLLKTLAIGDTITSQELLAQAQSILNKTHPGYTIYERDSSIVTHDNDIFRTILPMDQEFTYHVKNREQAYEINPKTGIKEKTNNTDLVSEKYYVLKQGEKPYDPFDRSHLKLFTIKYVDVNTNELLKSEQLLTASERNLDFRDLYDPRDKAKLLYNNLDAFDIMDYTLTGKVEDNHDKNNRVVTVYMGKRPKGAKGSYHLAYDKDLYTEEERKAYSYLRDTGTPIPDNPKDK
Nature of the test: S. pyogenes streptokinase expression inhibitors, potency, dose response, plasminogen activation absorbance, OD405 (AID 1914).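 Note: secreted streptokinase activity via plasminogen activation per viability signal from cell pellet.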 In kind it is functional, Streptococcus pyogenes M1 GAS.

Test [8] concerns Streptococcus sp. 'group A'. As to the kind of experiment: growth inhibition of control SK(-) GAS strain, dose response, counter-screen for streptokinase expression inhibitor project, luminescence, kanamycin, BacTiterGlo, confirmation (AID 1900). The format is functional, organism-based.
In test [9] the test system is INS1. As to the kind of experiment: inhibitors of cytokine-induced nitrite release, dose response, cell-based, Griess absorbance, INS-1E, dry powder, set 2 (AID 488868). Particulars: Rattus norvegicus. The format is functional. For orientation: Griess reagent forms a coloured azo dye with nitrite.
Test [10] deals with INS1. Nature of the test: caspase-3/7 inhibition in cytokine-treated INS-1E, dose response, beta-cell apoptosis inhibitor project, cell-based, caspase luminescence, dry powder (AID 488848). The note with it: Rattus norvegicus. In kind it is functional.
For another test, the target named is Phospholipase D1 (Homo sapiens, UniProt Q13393). Nature of the test: PLD1 inhibitor potency in cells, dose response (AID 602151).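 Note: cellular PLD1 assay in Calu-1 cells stimulated with PMA.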 In kind it is functional.
A further test has as its target Phospholipase D2 (Homo sapiens, UniProt O14939). As to the kind of experiment: PLD2 inhibitor potency in cells, dose response (AID 602147).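 Note: cellular assay in HEK293 cells overexpressing GFP-tagged PLD2.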 The format is functional.
The target in test [11] is T2, CAAX prenyl protease 2 (Saccharomyces cerevisiae S288c, UniProt Q03530).
T2 sequence (Q03530 whole entry): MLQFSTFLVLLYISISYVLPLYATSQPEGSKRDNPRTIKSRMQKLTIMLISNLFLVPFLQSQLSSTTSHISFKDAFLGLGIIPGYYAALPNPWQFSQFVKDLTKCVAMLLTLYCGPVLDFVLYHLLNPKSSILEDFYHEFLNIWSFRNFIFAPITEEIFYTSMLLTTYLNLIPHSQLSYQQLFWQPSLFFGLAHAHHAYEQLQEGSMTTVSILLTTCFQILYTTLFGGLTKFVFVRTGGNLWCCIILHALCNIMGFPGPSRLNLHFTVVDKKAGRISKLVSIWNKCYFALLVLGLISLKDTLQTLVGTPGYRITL
In kind it is biochemical.

Test [12] concerns the target T2, CAAX prenyl protease 2. Nature of the test: yeast Rce1 CaaX protease inhibitors, dose response, biochemical, plate reader, dry powder retest (AID 588851).

Sequence of Latent membrane protein 1 (P03230 whole entry): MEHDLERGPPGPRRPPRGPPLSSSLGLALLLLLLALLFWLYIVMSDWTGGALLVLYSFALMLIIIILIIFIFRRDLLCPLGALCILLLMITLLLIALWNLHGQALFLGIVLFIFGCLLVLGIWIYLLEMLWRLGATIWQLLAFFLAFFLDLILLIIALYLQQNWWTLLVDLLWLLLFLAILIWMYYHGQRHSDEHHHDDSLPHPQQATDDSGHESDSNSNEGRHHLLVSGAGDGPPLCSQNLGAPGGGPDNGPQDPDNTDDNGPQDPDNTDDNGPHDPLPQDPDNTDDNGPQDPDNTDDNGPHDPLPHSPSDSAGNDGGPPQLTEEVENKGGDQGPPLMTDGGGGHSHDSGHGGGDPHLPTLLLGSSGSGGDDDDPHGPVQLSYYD
Sequence of Phospholipase D2 (O14939 whole entry): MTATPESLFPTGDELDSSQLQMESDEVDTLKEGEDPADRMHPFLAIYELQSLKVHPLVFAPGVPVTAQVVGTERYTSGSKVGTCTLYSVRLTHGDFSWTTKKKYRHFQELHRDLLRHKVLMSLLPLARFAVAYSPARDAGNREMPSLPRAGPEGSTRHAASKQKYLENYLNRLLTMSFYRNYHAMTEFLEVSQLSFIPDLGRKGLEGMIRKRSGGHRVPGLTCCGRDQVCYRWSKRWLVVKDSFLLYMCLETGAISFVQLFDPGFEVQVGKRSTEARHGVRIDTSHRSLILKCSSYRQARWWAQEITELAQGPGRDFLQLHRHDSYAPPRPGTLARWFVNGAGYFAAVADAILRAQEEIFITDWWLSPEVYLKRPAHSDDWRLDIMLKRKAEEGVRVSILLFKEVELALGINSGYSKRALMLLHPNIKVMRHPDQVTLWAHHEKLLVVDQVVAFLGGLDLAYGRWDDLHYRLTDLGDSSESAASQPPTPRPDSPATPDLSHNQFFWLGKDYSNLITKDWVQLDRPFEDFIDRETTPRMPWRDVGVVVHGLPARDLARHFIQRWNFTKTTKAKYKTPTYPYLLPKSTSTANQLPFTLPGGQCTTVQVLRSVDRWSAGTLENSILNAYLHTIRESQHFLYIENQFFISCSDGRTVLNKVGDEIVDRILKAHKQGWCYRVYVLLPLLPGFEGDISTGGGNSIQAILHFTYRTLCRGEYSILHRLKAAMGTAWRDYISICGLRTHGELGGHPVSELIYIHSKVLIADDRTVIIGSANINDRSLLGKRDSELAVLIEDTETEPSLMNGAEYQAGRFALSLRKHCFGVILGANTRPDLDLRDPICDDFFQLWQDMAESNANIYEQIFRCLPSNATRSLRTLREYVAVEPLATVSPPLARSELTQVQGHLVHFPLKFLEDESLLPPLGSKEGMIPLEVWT
Sequence of Cysteine protease ATG4B (Q9Y4P1 whole entry): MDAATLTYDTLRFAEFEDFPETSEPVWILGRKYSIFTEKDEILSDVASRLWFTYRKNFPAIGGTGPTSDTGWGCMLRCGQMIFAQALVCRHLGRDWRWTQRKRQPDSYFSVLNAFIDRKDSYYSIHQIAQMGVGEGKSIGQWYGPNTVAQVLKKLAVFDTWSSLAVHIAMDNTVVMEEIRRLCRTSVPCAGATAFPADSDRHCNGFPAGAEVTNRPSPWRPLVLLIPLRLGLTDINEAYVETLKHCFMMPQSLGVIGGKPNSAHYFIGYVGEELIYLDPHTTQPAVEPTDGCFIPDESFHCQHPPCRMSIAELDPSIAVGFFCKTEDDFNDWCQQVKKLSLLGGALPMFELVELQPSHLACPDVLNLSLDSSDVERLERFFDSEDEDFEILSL
Sequence of Phospholipase A2 (P04054 whole entry): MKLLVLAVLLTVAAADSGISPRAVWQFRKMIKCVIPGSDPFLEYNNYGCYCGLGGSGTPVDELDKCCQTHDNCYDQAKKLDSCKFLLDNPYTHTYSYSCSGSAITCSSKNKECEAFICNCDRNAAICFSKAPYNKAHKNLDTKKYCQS
Sequence of Genome polyprotein (P29990 2492-3391 limits assumed): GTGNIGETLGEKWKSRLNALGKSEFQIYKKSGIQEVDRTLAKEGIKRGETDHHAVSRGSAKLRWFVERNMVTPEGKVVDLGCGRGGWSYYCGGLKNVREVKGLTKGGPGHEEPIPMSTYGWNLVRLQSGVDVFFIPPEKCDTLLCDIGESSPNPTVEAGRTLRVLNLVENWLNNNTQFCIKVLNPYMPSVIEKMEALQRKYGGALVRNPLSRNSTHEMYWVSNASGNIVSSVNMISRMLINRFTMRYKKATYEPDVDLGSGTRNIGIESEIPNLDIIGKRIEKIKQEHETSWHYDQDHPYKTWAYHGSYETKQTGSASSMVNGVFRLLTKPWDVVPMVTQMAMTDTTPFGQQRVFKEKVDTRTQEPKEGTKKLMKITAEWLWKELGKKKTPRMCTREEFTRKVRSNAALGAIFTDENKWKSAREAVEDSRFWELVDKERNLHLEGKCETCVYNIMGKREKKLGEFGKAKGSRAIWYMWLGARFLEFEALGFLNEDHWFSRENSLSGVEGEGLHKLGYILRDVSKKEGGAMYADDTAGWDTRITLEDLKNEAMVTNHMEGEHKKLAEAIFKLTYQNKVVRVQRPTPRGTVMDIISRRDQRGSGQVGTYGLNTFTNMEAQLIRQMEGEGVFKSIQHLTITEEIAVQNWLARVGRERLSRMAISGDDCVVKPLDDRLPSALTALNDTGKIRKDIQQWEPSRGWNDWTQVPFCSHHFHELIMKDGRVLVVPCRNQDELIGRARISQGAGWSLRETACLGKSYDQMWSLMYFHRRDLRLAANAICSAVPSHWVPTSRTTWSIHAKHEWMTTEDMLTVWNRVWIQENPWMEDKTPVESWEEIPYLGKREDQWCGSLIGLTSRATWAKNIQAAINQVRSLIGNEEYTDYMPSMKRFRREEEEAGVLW
Sequence of Phospholipase D1 (Q13393 whole entry): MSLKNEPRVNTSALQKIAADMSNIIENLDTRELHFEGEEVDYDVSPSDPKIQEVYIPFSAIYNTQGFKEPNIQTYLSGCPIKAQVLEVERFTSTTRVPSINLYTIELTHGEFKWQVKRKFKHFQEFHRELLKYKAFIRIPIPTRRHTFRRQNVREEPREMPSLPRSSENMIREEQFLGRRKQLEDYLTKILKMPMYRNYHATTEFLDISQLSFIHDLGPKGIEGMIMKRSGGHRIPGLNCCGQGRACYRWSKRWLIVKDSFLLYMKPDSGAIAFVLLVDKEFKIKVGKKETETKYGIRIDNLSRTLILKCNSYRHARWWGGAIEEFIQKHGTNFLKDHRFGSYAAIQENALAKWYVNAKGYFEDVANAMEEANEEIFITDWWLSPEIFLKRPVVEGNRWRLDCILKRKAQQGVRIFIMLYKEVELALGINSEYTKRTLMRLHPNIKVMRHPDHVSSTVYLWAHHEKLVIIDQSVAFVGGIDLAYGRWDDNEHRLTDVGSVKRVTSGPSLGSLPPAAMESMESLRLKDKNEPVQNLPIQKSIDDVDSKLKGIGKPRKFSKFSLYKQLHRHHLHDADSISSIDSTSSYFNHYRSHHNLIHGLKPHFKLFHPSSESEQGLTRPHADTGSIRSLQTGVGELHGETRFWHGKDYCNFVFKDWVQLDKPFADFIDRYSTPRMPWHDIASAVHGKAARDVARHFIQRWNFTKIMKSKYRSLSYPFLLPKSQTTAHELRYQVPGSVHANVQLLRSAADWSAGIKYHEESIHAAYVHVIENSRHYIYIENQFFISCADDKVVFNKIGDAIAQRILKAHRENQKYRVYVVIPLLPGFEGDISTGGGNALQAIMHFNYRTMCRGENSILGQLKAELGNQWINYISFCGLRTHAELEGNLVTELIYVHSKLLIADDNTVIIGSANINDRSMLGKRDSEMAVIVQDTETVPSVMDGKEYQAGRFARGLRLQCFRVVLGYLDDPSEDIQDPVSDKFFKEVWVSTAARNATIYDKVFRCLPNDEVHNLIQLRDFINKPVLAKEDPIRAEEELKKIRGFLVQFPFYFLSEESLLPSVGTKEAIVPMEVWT

As to `O=C(OC1CCN(CCCl)CC1)C(c1ccccc1)c1ccccc1`, the values for the AC50 (in test [1]; in the test with HEK293 [2]) were 24.2 µM (active) and 24.3 µM (active), respectively.
As for `O=C(O)CCn1cc(/C=C/C(=O)c2ccc(Cl)cc2)c(-c2cccc(Br)c2)n1`, the concentration for a half-maximal effect (EC50) in the test with Streptococcus is 6.69 µM (active); in the test with HEK293 [3] it was 6.52 µM (active); on Streptokinase A, 0.874 µM (active); in test [8] it was 4.35 µM (active). In addition, the 50% inhibitory concentration (IC50) was 8.65 µM (active) at Phospholipase A2; 13.5 µM (active) on Cysteine protease ATG4B; 27.8 µM (active) in test [4]; 52.4 µM (active) on Genome polyprotein; 4.06 µM (active) in the test with HEK293 [5]; 17.9 µM (active) in the test with HEK293 [6]. In addition, in the test on HEK293 [7], the half-inhibitory concentration (IC50) is 10.6 µM (active). Moreover, the CC50 in the test with Vero is > 40 µM (active).
`COc1ccc(S(=O)(=O)N(C)C[C@@H]2Oc3c(NC(=O)c4cccc5ccccc45)cccc3C(=O)N([C@@H](C)CO)C[C@H]2C)cc1`: the concentration at half-maximal activity (AC50) with INS1 [9] was 84.8 µM (active); in the test with INS1 [10], > 195 µM (inactive).
As for `C[C@@H](CN1CCC(n2c(=O)[nH]c3ccccc32)CC1)NC(=O)c1cc2cc(F)ccc2[nH]1`, the IC50 was 0.001 µM (active) on Phospholipase D1 and 0.13 µM (active) at Phospholipase D2.
As for `Nc1nonc1-n1nnc(C(=O)N/N=C/c2cccc(Cl)c2)c1CSc1ccc(Cl)cc1`, the half-maximal activity concentration (AC50) on CAAX prenyl protease 2 [11] is 0.136 µM (active); at CAAX prenyl protease 2 [12], 3.15 µM (active).
